The results in this text go back to patent US12187742B2 (XRAD Therapeutics, Inc., priority 2018, dated 2025).

pIC50: −log10 of the molar value. Structures can show the parent of a compound that is named as a salt.

For experiment [1], the target named is ATM (Homo sapiens (Human), UniProt Q13315). Description: ATM in Cell Western Assay (pKAP1 in etoposide-treated MCF-7 cells). Format: cell-based. The procedure, abridged: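 After paraformaldehyde fixation and Triton X-100 permeabilization, immunostained plates were read by infrared scanning (ODYSSEY CLx). Compound was given as 10 doses, 3-fold dilutions from a 1 μM final top concentration.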
Chain of ATM (Q13315 whole entry): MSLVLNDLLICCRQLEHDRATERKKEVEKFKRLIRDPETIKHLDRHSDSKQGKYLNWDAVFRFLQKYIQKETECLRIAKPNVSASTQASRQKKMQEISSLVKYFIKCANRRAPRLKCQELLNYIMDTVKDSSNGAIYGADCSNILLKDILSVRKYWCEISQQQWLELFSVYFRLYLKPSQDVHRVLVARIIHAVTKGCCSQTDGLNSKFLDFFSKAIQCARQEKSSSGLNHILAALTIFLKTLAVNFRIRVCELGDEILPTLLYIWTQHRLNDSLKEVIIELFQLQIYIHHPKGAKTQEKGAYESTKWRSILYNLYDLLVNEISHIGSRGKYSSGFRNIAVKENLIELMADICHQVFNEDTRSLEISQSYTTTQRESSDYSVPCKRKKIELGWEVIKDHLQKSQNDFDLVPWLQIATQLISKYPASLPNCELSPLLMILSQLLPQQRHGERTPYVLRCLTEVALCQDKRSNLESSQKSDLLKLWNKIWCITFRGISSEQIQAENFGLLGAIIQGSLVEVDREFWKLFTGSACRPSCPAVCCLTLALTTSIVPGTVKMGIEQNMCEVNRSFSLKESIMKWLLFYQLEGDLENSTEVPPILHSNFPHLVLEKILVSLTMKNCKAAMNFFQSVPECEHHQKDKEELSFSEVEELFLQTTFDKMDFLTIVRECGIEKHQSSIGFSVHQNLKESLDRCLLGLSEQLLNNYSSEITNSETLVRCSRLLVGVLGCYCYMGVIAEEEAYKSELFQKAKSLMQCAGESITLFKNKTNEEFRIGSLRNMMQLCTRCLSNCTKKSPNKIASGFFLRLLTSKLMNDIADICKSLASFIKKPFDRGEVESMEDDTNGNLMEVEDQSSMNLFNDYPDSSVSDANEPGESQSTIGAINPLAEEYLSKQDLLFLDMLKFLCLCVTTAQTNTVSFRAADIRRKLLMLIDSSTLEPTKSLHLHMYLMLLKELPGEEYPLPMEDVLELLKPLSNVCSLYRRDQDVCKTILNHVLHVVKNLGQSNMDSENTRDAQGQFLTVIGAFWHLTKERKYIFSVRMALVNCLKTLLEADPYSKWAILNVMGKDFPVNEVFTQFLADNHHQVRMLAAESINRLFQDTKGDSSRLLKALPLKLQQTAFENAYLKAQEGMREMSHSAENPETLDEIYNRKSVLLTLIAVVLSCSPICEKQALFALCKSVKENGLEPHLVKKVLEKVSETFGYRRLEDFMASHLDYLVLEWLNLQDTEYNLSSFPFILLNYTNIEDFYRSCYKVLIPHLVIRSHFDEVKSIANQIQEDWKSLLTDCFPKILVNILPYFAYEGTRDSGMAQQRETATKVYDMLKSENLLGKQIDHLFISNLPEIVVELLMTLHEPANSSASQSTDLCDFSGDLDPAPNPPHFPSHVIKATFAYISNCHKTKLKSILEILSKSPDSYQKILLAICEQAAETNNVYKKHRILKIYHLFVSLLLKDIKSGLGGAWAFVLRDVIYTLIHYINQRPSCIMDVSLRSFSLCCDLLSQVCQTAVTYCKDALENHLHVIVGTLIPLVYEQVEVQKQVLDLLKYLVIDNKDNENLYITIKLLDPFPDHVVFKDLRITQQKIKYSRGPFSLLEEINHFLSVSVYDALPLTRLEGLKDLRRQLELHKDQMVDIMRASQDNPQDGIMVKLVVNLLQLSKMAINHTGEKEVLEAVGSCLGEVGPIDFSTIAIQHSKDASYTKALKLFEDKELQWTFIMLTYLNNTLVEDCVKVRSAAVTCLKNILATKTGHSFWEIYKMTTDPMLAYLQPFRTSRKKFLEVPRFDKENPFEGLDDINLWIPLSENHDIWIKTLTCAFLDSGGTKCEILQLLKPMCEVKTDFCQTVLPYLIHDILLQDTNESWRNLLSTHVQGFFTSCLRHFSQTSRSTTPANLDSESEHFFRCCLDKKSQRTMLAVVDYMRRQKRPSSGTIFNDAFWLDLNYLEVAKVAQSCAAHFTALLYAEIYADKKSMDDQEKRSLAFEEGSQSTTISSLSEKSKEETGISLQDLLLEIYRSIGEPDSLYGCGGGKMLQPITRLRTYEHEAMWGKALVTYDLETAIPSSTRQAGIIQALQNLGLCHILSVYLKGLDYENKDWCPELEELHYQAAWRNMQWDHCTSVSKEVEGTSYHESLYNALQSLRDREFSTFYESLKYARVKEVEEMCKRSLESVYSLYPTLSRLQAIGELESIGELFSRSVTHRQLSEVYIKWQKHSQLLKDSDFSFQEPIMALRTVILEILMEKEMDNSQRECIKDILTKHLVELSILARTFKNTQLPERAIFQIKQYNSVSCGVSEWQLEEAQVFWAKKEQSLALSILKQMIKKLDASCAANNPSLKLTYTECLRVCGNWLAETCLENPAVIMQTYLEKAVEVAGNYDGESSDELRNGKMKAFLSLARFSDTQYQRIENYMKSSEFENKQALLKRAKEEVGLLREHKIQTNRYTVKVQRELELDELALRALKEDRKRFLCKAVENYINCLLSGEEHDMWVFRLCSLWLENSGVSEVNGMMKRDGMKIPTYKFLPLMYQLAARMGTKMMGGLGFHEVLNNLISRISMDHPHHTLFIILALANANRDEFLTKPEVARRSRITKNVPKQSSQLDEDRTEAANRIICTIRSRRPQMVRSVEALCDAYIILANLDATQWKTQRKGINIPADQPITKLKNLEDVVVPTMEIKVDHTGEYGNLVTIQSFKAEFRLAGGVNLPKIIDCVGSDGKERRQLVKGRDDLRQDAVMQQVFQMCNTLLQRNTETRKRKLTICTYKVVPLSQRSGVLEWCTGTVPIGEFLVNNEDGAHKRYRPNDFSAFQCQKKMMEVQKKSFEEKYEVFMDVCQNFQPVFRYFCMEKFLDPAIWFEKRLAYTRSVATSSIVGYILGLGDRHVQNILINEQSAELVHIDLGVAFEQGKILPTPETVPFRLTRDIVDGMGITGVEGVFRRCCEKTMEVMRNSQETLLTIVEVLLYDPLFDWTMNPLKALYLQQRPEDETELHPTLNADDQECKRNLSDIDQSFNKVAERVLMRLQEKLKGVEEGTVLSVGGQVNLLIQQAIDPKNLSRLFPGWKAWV

Experiment [2] has as its target DNA-PK (Homo sapiens (Human), UniProt P78527). Description: DNA-PK Enzyme-Linked Immunosorbent Assay (phosphorylation of GST-p53 (1-101) peptide). Type of experiment: biochemical. Conditions: ELISA. An outline of the steps: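 Inhibition measured by 450 nm absorbance after HRP/TMB detection of phospho-Ser15 on immobilized GST-p53 (1-101). The kinase reaction used 0.1 μg/mL DNA-PK and 20 μM ATP, 1 h at 25 °C. Ten 3-fold compound dilutions, top final concentration 100 nM.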
In general terms: An ELISA detects its analyte on a solid surface through an enzyme-linked reagent.

Where [3] appears, read: MCF-7 cells, etoposide 100 μM, 1 hr, pKAP1 readout.
[4] abbreviates: pKAP1 in etoposide-treated MCF-7 cells.

In general, pIC50 refers to the IC50 on a negative log10 scale, so that one unit is a factor of ten. A high value points to a low IC50. For the molecule `CN1CCCN(c2ncc(-c3ccc4ncc5c(c4c3)C3(CC3)C(=O)N5C)cc2NS(=O)(=O)c2ccccc2)CC1` [Example 53, N-(2-(4-Methyl-1,4-diazepan-1-yl)-5-(3′-methyl-2′-oxo-2′,3′-dihydrospiro[cyclopropane-1,1′-pyrrolo[2,3-c]quinolin]-8′-yl)pyridin-3-yl)benzenesulfonamide], the negative logarithm of the IC50 (pIC50) in experiment [1] (setting [3]) and in experiment [2] (ATP 20 μM) was 7.00 to 9.00 throughout.
As for `CN1C(=O)C2(CCC2)c2c1cnc1ccc(-c3cnc(OCCCN4CCCC4)c(NS(=O)(=O)c4ccccc4)c3)cc21` [Example 232, N-(5-(3′-Methyl-2′-oxo-2′,3′-dihydrospiro[cyclobutane-1,1′-pyrrolo[2,3-c]quinolin]-8′-yl)-2-(3-(pyrrolidin-1-yl)propoxy)pyridin-3-yl)benzenesulfonamide], the pIC50 in experiment [1] (setting [3]) is 7.00 to 9.00; in experiment [2] (ATP 20 μM), 9.00 to 9.30.
In the case of `CN1C(=O)C2(CC2)c2c1cnc1ccc(-c3ccc4ncccc4c3)cc21` [Example 22, 3′-Methyl-8′-(quinolin-6-yl)spiro[cyclopropane-1,1′-pyrrolo[2,3-c]quinolin]-2′(3′-H)-one], the pIC50 in experiment [1] (setting [3]) and in experiment [2] (ATP 20 μM) was 7.00 to 9.00 throughout.
On to `CN1C(=O)C2(CC2)c2c1cnc1ccc(-c3cnc(OCCC4CCCCN4C)c(NS(=O)(=O)C4CC4)c3)cc21` (stereo not shown) [Example 80, N-(5-(3′-Methyl-2′-oxo-2′,3′-dihydrospiro [cyclopropane-1,1′-pyrrolo[2,3-c]quinolin]-8′-yl)-2-(2-(1-methylpiperidin-2-yl)ethoxy)pyridin-3-yl)cyclopropanesulfonamide], for which the pIC50 in experiment [1] (setting [3]) and in experiment [2] (ATP 20 μM) was 7.00 to 9.00 throughout.
`CC(C)NCCOc1ncc(-c2cc3c4c(cnc3cc2F)N(C)C(=O)C42CC(C)(C)C2)cc1NS(C)(=O)=O` [Example 446, N-(5-(7′-Fluoro-3,3,3′-trimethyl-2′-oxo-2′,3′-dihydrospiro[cyclobutane-1,1′-pyrrolo[2,3-c]quinolin]-8′-yl)-2-(2-(isopropylamino)ethoxy)pyridin-3-yl)methanesulfonamide]: the pIC50 in experiment [1] (setting [4]) is 7.00 to 9.00; in experiment [2] (20 μM ATP), more than 9.30.
As to `CN(C)CCCOc1ncc(-c2ccc3ncc4c(c3c2)C2(CC2)C(=O)N4C)cc1NS(=O)(=O)c1ccc(Cl)cc1` [Example 128, 4-Chloro-N-(2-(3-(dimethylamino)propoxy)-5-(3′-methyl-2′-oxo-2′,3′-dihydrospiro[cyclopropane-1,1′-pyrrolo[2,3-c]quinolin]-8′-yl)pyridin-3-yl)benzenesulfonamide hydrochloride], the figures for the pIC50 in experiment [1] (setting [3]) and in experiment [2] (ATP 20 μM) were 7.00 to 9.00 and more than 9.30, respectively.
For `CN(C)CCCOc1ncc(-c2ccc3ncc4c(c3c2)C2(CCC2)C(=O)N4C)cc1NS(=O)(=O)c1ccsc1` [Example 272, N-(2-(3-(Dimethylamino)propoxy)-5-(3′-methyl-2′-oxo-2′,3′-dihydrospiro [cyclobutane-1,1′-pyrrolo[2,3-c]quinolin]-8′-yl)pyridin-3-yl) thiophene-3-sulfonamide], the values for the negative logarithm of the IC50 (pIC50) in experiment [1] (setting [3]) and in experiment [2] (ATP 20 μM) were 9.00 to 9.30 and 7.00 to 9.00, respectively.
In the same order, the values of `CN(C)CCCOc1ncc(-c2ccc3ncc4c(c3c2)C2(CC2)C(=O)N4C)cc1NS(=O)(=O)Cc1ccccc1` [Example 103, N-(2-(3-(Dimethylamino)propoxy)-5-(3′-methyl-2′-oxo-2′,3′-dihydrospiro [cyclopropane-1,1′-pyrrolo[2,3-c]quinolin]-8′-yl)pyridin-3-yl)-1-phenylmethanesulfonamide] are 7.00 to 9.00 and 7.00 to 9.00.
Consider `COc1cccc([C@H]2C[C@@]3(C2)C(=O)N(C)c2cnc4cc(F)c(-c5cnc(OCCNC(C)C)c(NS(C)(=O)=O)c5)cc4c23)n1` [Example 429, trans-N-(5-(7′-Fluor-3-(6-methoxypyridin-2-yl)-3′-methyl-2′-oxo-2′,3′-dihydrospiro[cyclobutane-1,1′-pyrrolo[2,3-c]quinolin]-8′-yl)-2-(2-(isopropylamino)ethoxy)pyridin-3-yl)methanesulfonamide], for which the pIC50 in experiment [1] (setting [4]) and in experiment [2] (20 μM ATP) was 7.00 to 9.00 throughout.
Consider `CN(C)CCCOc1ncc(-c2ccc3ncc4c(c3c2)C2(CCC2)C(=O)N4C)cc1NS(=O)(=O)C(F)F` [Example 247, N-(2-(3-(Dimethylamino)propoxy)-5-(3′-methyl-2′-oxo-2′,3′-dihydrospiro [cyclobutane-1,1′-pyrrolo[2,3-c]quinolin]-8′-yl)pyridin-3-yl)-1,1′-difluoromethane-sulfonamide], for which the pIC50 in experiment [1] (setting [3]) is 7.00 to 9.00; in experiment [2] (ATP 20 μM), more than 9.30.
With `CCS(=O)(=O)Nc1cc(-c2cc3c4c(cnc3cc2F)N(C)C(=O)C42CCC2)cnc1N1CC(NC)C1` [Example 334], the pIC50 in experiment [1] (setting [3]) was 7.00 to 9.00; in experiment [2] (ATP 20 μM), 9.00 to 9.30.
For `CN1C(=O)C2(CCC2)c2c1cnc1ccc(-c3cnc(N4CCC(N5CCCCC5)C4)c(NS(C)(=O)=O)c3)cc21` (racemic) [Example 352, (rac)-N-(5-(3′-Methyl-2′-oxo-2′,3′-dihydrospiro[cyclobulane-1,1′-pyrrolo[2,3-c]quinolin]-8′-yl)-2-(3-(piperidin-1-yl)pyrrolidin-1-yl)pyridin-3-yl)methanesulfonamide hydrochloride], the negative-log IC50 (pIC50) in experiment [1] (setting [4]) and in experiment [2] (20 μM ATP) was 7.00 to 9.00 each time.
On to `CN1CCN(CCCOc2ncc(-c3ccc4ncc5c(c4c3)C3(CCC3)C(=O)N5C)cc2NS(C)(=O)=O)CC1` [Example 299, N-(5-(3′-Methyl-2′-oxo-2′,3′-dihydrospiro[cyclobutane-1,1′-pyrrolo[2,3-c]quinolin]-8′-yl)-2-(3-(4-methylpiperazin-1-yl)propoxy)pyridin-3-yl)methanesulfonamide], for which the pIC50 in experiment [1] (setting [3]) and in experiment [2] (ATP 20 μM) was 7.00 to 9.00 throughout.
For the molecule `CN1CCN(c2ncc(-c3ccc4ncc5c(c4c3)C3(CCC3)C(=O)N5C)cc2NS(=O)(=O)c2ccccc2)CC1` [Example 243, N-(5-(3′-Methyl-2′-oxo-2′,3′-dihydrospiro[cyclobutane-1,1′-pyrrolo[2,3-c]quinolin]-8′-yl)-2-(4-methylpiperazin-l-yl)Pyridin-3-yl)benzenesulfonamide], the pIC50 in experiment [1] (setting [3]) and in experiment [2] (ATP 20 μM) was 7.00 to 9.00 throughout.
`CN(C)CCCOc1ncc(-c2ccc3ncc4c(c3c2)C2(CC2)C(=O)N4C)cc1NS(=O)(=O)C1CC1` [Example 29, N-(2-(3-(Dimethylamino)propoxy)-5-(3′-methyl-2′-oxo-2′,3′-dibydrospiro [cyclopropane-1,1′-pyrrolo[2,3-c]quinolin]-8′-yl)pyridin-3-yl) cyclopropanesulfonamide]: the pIC50 in experiment [1] (setting [3]) and in experiment [2] (ATP 20 μM) was 7.00 to 9.00 throughout.
Consider `CN(C)CCCOc1ccc(-c2ccc3ncc4c(c3c2)C2(CC2)C(=O)N4C)cc1NS(=O)(=O)c1ccccc1` [Example 63, N-(2-(3-(Dimethylamino)propoxy)-5-(3′-methyl-2′-oxo-2′,3′-dihydrospiro[cyclopropane-1,1′-pyrrolo[2,3-c]quinolin]-8′-yl)phenyl)benzenesulfonamide], for which the results for the pIC50 in experiment [1] (setting [3]) and in experiment [2] (ATP 20 μM) were 9.00 to 9.30 and 7.00 to 9.00, respectively.
In the same order, the values of `COc1cccc(S(=O)(=O)Nc2cc(-c3ccc4ncc5c(c4c3)C3(CC3)C(=O)N5C)cnc2OCCCN(C)C)c1` [Example 104] are 9.00 to 9.30 and 7.00 to 9.00.
